Test results as given in patent publication US20070196763A1, “Method of forming laminated resist” (DAIKIN INDUSTRIES, LTD., priority 2003, published 2007).
“And” between values parts separate entries of the source, which are not always exact repeats. Identical values can stand only once.

Experiments:
[1] = Determination of pKa value of monomer having hydrophilic group by NaOH titration
Protocol: In a water/acetone mixture (10/15 ml) solution was poured 0.7865 g of CH2═CHCH2C(CF3)2OH, followed by stirring at room temperature. After it was confirmed that the solution was homogeneous, titration was carried out with about 0.2 mol/L NaOH solution. A titration curve was obtained by adding the NaOH solution dropwise in increments of 0.15 ml and recording a pH value at every addition. An equivalence point was determined by an inflection point (maximum differential value of titration curve=dpH/dml) of the titration curve.

[2] = water/acetone mixture, pKa, monomer having hydrophilic group used in the Preparation Example, corrected
[3] = monomer having hydrophilic group used in the Preparation Example, NaOH titration in water/acetone, corrected

| Compound | pKa [1, 2] | pKa [1, 3] | further results |
| --- | --- | --- | --- |
| O=C(O)/C=C\C(=O)O [Maleic acid] | 1.4 | – | – |
| C=C(F)C(F)(F)OC(F)(C(=O)O)C(F)(F)F (centres unmarked) [perfluoro-(6,6-dihydro-2-trifluoromethyl-3-oxa-5-hexenoic acid)] | – | – | pKa (physchem): 3.4 |
| C=C(F)C(F)(F)OC(F)(C(F)(F)F)C(F)(F)OC(F)(C(=O)O)C(F)(F)F (centres unmarked) [perfluoro-(9,9-dihydro-2,5-bistrifluoromethyl-3,6-dioxa-8-nonenoic acid)] | – | 3.6 | – |
| C=C(F)C(F)(F)OC(F)(C(F)(F)F)C(F)(F)OC(F)(C(F)(F)F)C(F)(F)OC(F)(C(F)(F)F)C(F)(F)OC(F)(C(=O)O)C(F)(F)F (centres unmarked) [perfluoro-(15,15-dihydro-2,5,8,11-tetrakistrifluoromethyl-3,6,9,12-tetraoxa-14-pentadecenic acid)] | – | 4.0 | – |

Continued, in another order:

| pKa [1, 2] | pKa [1, 3] | Compound | further results |
| --- | --- | --- | --- |
| 3.9 | – | C=C(C(=O)O)C(F)(F)F [2-(trifluoromethyl)acrylic acid] | – |
| – | 12.6 | C=C(F)C(F)(F)OC(F)(C(F)(F)F)C(F)(F)OC(F)(CO)C(F)(F)F (centres unmarked) [(1,1,9,9-tetrahydro-2,5-bistrifluoromethyl-3,6-dioxa-8-nonenol)] | – |
| 9.6 | – | C=CCC(O)(C(F)(F)F)C(F)(F)F [CH2═CHCH2C(CF3)2OH, 1,1-bistrifluoromethyl-3-buten-1-ol] | pKa value (single titration) ([1]; NaOH titration in water/acetone, pH at half equivalence point minus blank difference): 9.64 and 9.54; pKa ([1]; water/acetone mixture, pKa value (decided from experiments carried out three times), NaOH titration in water/acetone): 9.6; pKa ([1]; water/acetone mixture, pKa value (single titration), NaOH titration in water/acetone, pH at half equivalence point minus blank difference): 9.69 |
| – | 3.8 | C=C(F)C(F)(F)OC(F)(C(F)(F)F)C(F)(F)OC(F)(C(F)(F)F)C(F)(F)OC(F)(C(=O)O)C(F)(F)F (centres unmarked) [perfluoro-(12,12-dihydro-2,5,8-tristrifluoromethyl-3,6,9-trioxa-11-dodecenic acid)] | – |
